From patent publication US7449571B2, “Halogenated aminoquinolines and oligonucleotides containing the same” (Board of Regents of the University of Nebraska, priority 2005, dated 2008)
Where two headings read alike, the source gives them in different places.

How the values were obtained:
[1] = Li et al. 2003, Li et al. 2004; cited from earlier work

SMILES | pKa [1] | pKa (NaOAc buffer, pH 4.602-8.322, UV absorbance at 235 nm or fluorescence emission vs pH) | fraction of antiAT-F protonated (pH 8.0)
Nc1nc([C@H]2C[C@H](O)[C@@H](CO)O2)c2ccccc2n1 [antiAT, 2-amino-4-(2′-deoxy-β-D-ribofuranosyl)quinazoline] | 4.8 |  | 
Nc1cc([C@H]2C[C@H](O)[C@@H](CO)O2)c2cc(F)ccc2n1 [antiAT-F, 2-amino-6-fluoro-4-(2′-deoxy-β-D-ribofuranosyl)-quinoline] |  | 6.7 | approximately 2%
Nc1cc([C@H]2C[C@H](O)[C@@H](CO)O2)c2ccccc2n1 [antiGC, 2-amino-4-(2′-deoxy-β-D-ribofuranosyl) quinoline] | 7.2 |  | 
